Test results taken from US10736873B2, “Medical uses of N-(2-aminoethyl)-N-(4-benzyloxy)-3-methoxybenzyl)thiophene-2-formamide hydrochloride” (The Second Xiangya Hospital, Central South University, priority 2017, dated 2020).

Tests used:
[1] = test system: Scid-HepG2-subcutaneous tumor; assay: Scid-HepG2 subcutaneous tumor model in NOD/SCID nude mice; type: in vivo; conditions: for Relative volume of Scid-HepG2-subcutaneous tumor: 2 mg/kg i.p. 1 time/day
Experimental: (§1) Using the hepatoma cell line HepG2, 5×10^6 cells were injected into the right flank of each NOD/SCID nude mouse (10 in total) respectively. When the tumor grows to a volume of about 80 mm^3, the mice were randomly divided into control group and therapeutic intervention group, with 5 mice in each group. Therapeutic Intervention Group: M8-B hydrochloride was dissolved in DMSO to form an injectable medication, intraperitoneally injected, at a dose of 2 mg/kg (wherein 2 mg was the mass of M8-B hydrochloride), 1 time/day. Control Group: The blank solvent DMSO was intraperitoneally injected, at a dose of 2 mg/kg, 1 time/day. Tumor size was measured by volume=½×length×width^2, and the mice were sacrificed at week 10 to compare survival rate and tumor volume. The experimental results of this example are as follows: Tumor size was measured by volume=½×length×width^2, and mice were sacrificed at week 10 to compare survival rate and tumor volume. The experimental results of this example are as follows: In Table 1, DMSO represents the relative volume of Scid-HepG2-subcutaneous tumor in the control group of blank solvent, M8-B represents the relative volume of Scid-HepG2-subcutaneous tumor in the therapeutic intervention group, and P value represents the difference between the relative volumes of Scid-HepG2-subcutaneous tumors in the control group and therapeutic intervention group. The tumor size on the first day of administration is 100%.

[2] = test system: Scid-Huh7-subcutaneous tumor; assay: Scid-Huh7 subcutaneous tumor model in NOD/SCID nude mice; type: in vivo; conditions: for Relative volume of Scid-Huh7-subcutaneous tumor: 2 mg/kg i.p. 1 time/day
Experimental: as §1, with “Huh7,” for “HepG2,”, “6” for “10 to compare survival rate and tumor volume. The experimental results of this example are as follows: Tumor size was measured by volume=½×length×width^2, and mice were sacrificed at week 10”, “2,” for “1,”, “Scid-Huh7-subcutaneous” for “Scid-HepG2-subcutaneous”

[3] = week 0, tumor size on first day of administration = 100%
[4] = week 1, first day of administration = 100%
[5] = week 2, first day of administration = 100%
[6] = week 3, first day of administration = 100%
[7] = week 4, first day of administration = 100%
[8] = week 5, first day of administration = 100%
[9] = week 6, first day of administration = 100%

SMILES: COc1cc(CN(CCN)C(=O)c2cccs2)ccc1OCc1ccccc1.Cl [M8B]
- changes of tumor volume in mice (HepG2 tumors) ([1]; versus DMSO control, results of table 1): significantly slower
- Relative volume of Scid-HepG2-subcutaneous tumor [1, 3]: 100.00%
- Relative volume of Scid-HepG2-subcutaneous tumor [1, 4]: 151.94%
- Relative volume of Scid-HepG2-subcutaneous tumor [1, 5]: 212.44%
- Relative volume of Scid-HepG2-subcutaneous tumor [1, 6]: 273.9%
- Relative volume of Scid-HepG2-subcutaneous tumor [1, 7]: 349.0%
- Relative volume of Scid-HepG2-subcutaneous tumor [1, 8]: 416.66%
- Relative volume of Scid-HepG2-subcutaneous tumor [1, 9]: 479.2%
- Relative volume of Scid-HepG2-subcutaneous tumor ([1]; week 7, first day of administration = 100%): 590.68%
- Relative volume of Scid-HepG2-subcutaneous tumor ([1]; week 8, first day of administration = 100%): 1108.50%
- Relative volume of Scid-HepG2-subcutaneous tumor ([1]; week 9, first day of administration = 100%): 700.92%
- Relative volume of Scid-HepG2-subcutaneous tumor ([1]; week 10, first day of administration = 100%): 734.87%
- changes of tumor volume in mice (HuH7 tumors) ([2]; versus DMSO control, results of table 2): significantly slower
- Relative volume of Scid-Huh7-subcutaneous tumor [2, 3]: 100.00%
- Relative volume of Scid-Huh7-subcutaneous tumor [2, 4]: 143.85%
- Relative volume of Scid-Huh7-subcutaneous tumor [2, 5]: 205.0%
- Relative volume of Scid-Huh7-subcutaneous tumor [2, 6]: 381.41%
- Relative volume of Scid-Huh7-subcutaneous tumor [2, 7]: 484.0%
- Relative volume of Scid-Huh7-subcutaneous tumor [2, 8]: 789.89%
- Relative volume of Scid-Huh7-subcutaneous tumor [2, 9]: 928.01%
